Molecules are shown by their SMILES.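 Following 48 hours of exposure in 96-well plates, responses at five concentrations were used to interpolate endpoints linearly. Here, GI50 denotes the concentration required for 50% inhibition of growth.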 The source made the active and inactive calls. No stated cut-off is given here; in the data, active = GI50 up to about 1.1 µM and inactive = higher.

Experimental findings from ChEMBL document CHEMBL1201862, “PubChem BioAssay data set” (2004) are described below.

Some test systems named below: OVCAR-3; MDA-MB-231; CAKI-1; HCT-116; RXF 393; MDA-MB-435; HOP-62; OVCAR-4; DU-145; OVCAR-5; NCI-H23; SW-620; HT-29; NCI/ADR-RES; LOX IMVI; EKVX; SNB-75; HCT-15; UO-31; UACC-257.
Assay in all cases: inhibition of tumour cell growth, NCI panel, 48 h

Take `CC[C@@]1(O)C(=O)OCc2c1cc1n(c2=O)Cc2cc3c(NC(=O)CN)cccc3nc2-1`: the GI50 in the assay with OVCAR-3 was 2.17 µM (inactive); in the assay with MDA-MB-231, 14.5 µM (inactive); with CAKI-1, < 0.01 µM (active); in the assay with HCT-116, 0.441 µM (active); in the assay with RXF 393, < 0.0463 µM (active); with MDA-MB-435, 1.49 µM (inactive). Moreover, the GI50 with HOP-62 is 0.109 µM (active); in the assay with OVCAR-4 it was 4.51 µM (inactive); in the assay on DU-145 it was 0.065 µM (active); with OVCAR-5, 7.8 µM (inactive); in the assay on NCI-H23, 0.114 µM (active); in the assay with SW-620 it was 2.07 µM (inactive). Further, the GI50 in the assay on HT-29 is 2.69 µM (inactive); with NCI/ADR-RES, 0.188 µM (active); in the assay on LOX IMVI, 0.0575 µM (active); in the assay with EKVX, 16.6 µM (inactive); in the assay with SNB-75 it was 0.0733 µM (active); with HCT-15, 8.13 µM. The GI50 in the assay with UO-31 is 0.191 µM (active); with UACC-257 it was 1.43 µM (inactive).
As for `Clc1ccc(/C=C/c2nc(Cl)c(-c3ccc(Cl)cc3)c(Cl)n2)cc1`, the GI50 is > 100 µM (inactive) in the assay on OVCAR-3; 67 µM (inactive) with MDA-MB-231; 74.8 µM (inactive) in the assay with CAKI-1; 46.8 µM (inactive) in the assay with HCT-116; 53.8 µM (inactive) with RXF 393; 53.2 µM (inactive) in the assay with MDA-MB-435. Also, the GI50 in the assay on HOP-62 was > 100 µM (inactive); with OVCAR-4 it was 71.6 µM (inactive); in the assay on DU-145, 76.4 µM (inactive); with OVCAR-5 it was > 100 µM (inactive); in the assay with NCI-H23 it was 27.1 µM (inactive); in the assay on SW-620, 68.7 µM (inactive). For the same compound, the GI50 with HT-29 is 48.9 µM (inactive); with NCI/ADR-RES, 68.2 µM (inactive); in the assay with LOX IMVI, 86.9 µM (inactive); in the assay on EKVX, 69.8 µM (inactive); in the assay on SNB-75, 19.3 µM (inactive); with HCT-15 it was above 100 µM. In addition, the figures for the GI50 in the assay with UO-31 and in the assay with UACC-257 were 13.6 µM (inactive) and 39.3 µM (inactive), respectively.
`CCC(c1ccccc1)c1cc(C(C)(C)C)cc(C(C)(C)C)c1O` (stereo not given): the GI50 is 14.2 µM (inactive) in the assay with OVCAR-3; 18.1 µM (inactive) with MDA-MB-231; 16.2 µM (inactive) in the assay with CAKI-1; 12.9 µM (inactive) in the assay with HCT-116; 20 µM (inactive) in the assay on RXF 393; 18.2 µM (inactive) in the assay with MDA-MB-435. Also, the GI50 in the assay on HOP-62 was 16.2 µM (inactive); in the assay on OVCAR-4 it was 15.8 µM (inactive); in the assay on DU-145 it was 19.1 µM (inactive); with OVCAR-5, 13.7 µM (inactive); with NCI-H23 it was 17.2 µM (inactive); in the assay with SW-620, 16.5 µM (inactive). The GI50 is 14.9 µM (inactive) with HT-29; 15.4 µM (inactive) with NCI/ADR-RES; 18 µM (inactive) in the assay on LOX IMVI; 17.8 µM (inactive) with EKVX; 14.2 µM (inactive) in the assay with SNB-75; 16.8 µM in the assay with HCT-15. Also, the GI50 in the assay on UO-31 is 18.4 µM (inactive); with UACC-257, 15.2 µM (inactive).
As for `COCn1cnc2c(=O)n(-c3ccc(C)cc3)c(=S)n(-c3ccc(C)cc3)c21`, the GI50 in the assay on OVCAR-3 was > 100 µM (inactive); in the assay with MDA-MB-231, > 100 µM (inactive); in the assay with CAKI-1, > 100 µM (inactive); in the assay on HCT-116, > 100 µM (inactive); in the assay with RXF 393 it was 78.3 µM (inactive); in the assay on MDA-MB-435, > 100 µM (inactive). Also, the GI50 in the assay with HOP-62, in the assay with OVCAR-4, in the assay on DU-145, in the assay on OVCAR-5, in the assay with NCI-H23 and in the assay with SW-620 was > 100 µM (inactive) in each case. The GI50 in the assay on HT-29 is > 100 µM (inactive); in the assay on NCI/ADR-RES, > 100 µM (inactive); with LOX IMVI, > 100 µM (inactive); with EKVX it was > 100 µM (inactive); with SNB-75 it was 6.98 µM (inactive); in the assay on HCT-15, above 100 µM. In addition, the GI50 in the assay on UO-31 is 38.6 µM (inactive); in the assay with UACC-257, > 100 µM (inactive).
Turning to `CC1(C)CNC(c2ccc3c(c2)Cc2cc(C4=NC(C)(C)CN4)ccc2-3)=N1`, the GI50 in the assay with OVCAR-3 is 35.7 µM (inactive); in the assay on MDA-MB-231, 39.1 µM (inactive); with CAKI-1, > 100 µM (inactive); in the assay with HCT-116, 32.8 µM (inactive); in the assay with RXF 393, > 100 µM (inactive); in the assay with MDA-MB-435 it was 32.8 µM (inactive). For the same compound, the GI50 is 33.5 µM (inactive) with HOP-62; 32.9 µM (inactive) with OVCAR-4; > 100 µM (inactive) in the assay on DU-145; > 100 µM (inactive) in the assay on OVCAR-5; 35.1 µM (inactive) in the assay with NCI-H23; 34.5 µM (inactive) in the assay with SW-620. Moreover, the GI50 in the assay with HT-29 is 32.1 µM (inactive); in the assay with NCI/ADR-RES it was > 100 µM (inactive); with LOX IMVI it was 37 µM (inactive); in the assay with EKVX, 60 µM (inactive); in the assay on SNB-75, 90.6 µM (inactive); in the assay on HCT-15 it was above 100 µM. The GI50 in the assay with UO-31 is > 100 µM (inactive); with UACC-257 it was 31 µM (inactive).
As for `CSc1c(C#N)c(N)nc2c(/N=N\c3ccc(Br)cc3)c(N)nn12`, the GI50 with OVCAR-3 is 2.95 µM (inactive); in the assay on MDA-MB-231, 6.97 µM (inactive); with CAKI-1, 12.6 µM (inactive); in the assay with HCT-116 it was 6.34 µM (inactive); with RXF 393, 7.57 µM (inactive); in the assay with MDA-MB-435, 9.66 µM (inactive). Moreover, the GI50 in the assay with HOP-62 was 11.4 µM (inactive); in the assay on OVCAR-4, 7.21 µM (inactive); in the assay on DU-145, 6.14 µM (inactive); in the assay on OVCAR-5, 16.6 µM (inactive); in the assay on NCI-H23, 6.25 µM (inactive); with SW-620, 5.64 µM (inactive). The GI50 is 9.53 µM (inactive) in the assay with HT-29; 17.7 µM (inactive) in the assay with NCI/ADR-RES; 1.96 µM (inactive) with LOX IMVI; 7.78 µM (inactive) in the assay with EKVX; 10.6 µM (inactive) in the assay with SNB-75; 3.5 µM in the assay with HCT-15. Further, the GI50 in the assay on UO-31 is 14.8 µM (inactive); in the assay with UACC-257 it was 8.05 µM (inactive).
With `CC(C)Sc1nc(C#N)cc2c1CCCC2`, the GI50 in the assay on OVCAR-3 was 30.3 µM (inactive); in the assay with MDA-MB-231, 57.1 µM (inactive); with CAKI-1, > 100 µM (inactive); in the assay with HCT-116 it was 44.7 µM (inactive); with RXF 393 it was 27.7 µM (inactive); with MDA-MB-435 it was 47 µM (inactive). The GI50 was 85.7 µM (inactive) in the assay with HOP-62; 53.1 µM (inactive) with OVCAR-4; > 100 µM (inactive) in the assay with DU-145; > 100 µM (inactive) in the assay with OVCAR-5; 58.9 µM (inactive) in the assay with NCI-H23; 37.8 µM (inactive) in the assay with SW-620. For the same compound, the GI50 in the assay on HT-29 is > 100 µM (inactive); in the assay on NCI/ADR-RES, 39.2 µM (inactive); with LOX IMVI, 25.4 µM (inactive); in the assay on EKVX it was 49.4 µM (inactive); in the assay with SNB-75 it was > 100 µM (inactive); in the assay on HCT-15, 37.6 µM. In addition, the GI50 is 47.6 µM (inactive) in the assay with UO-31 and 39.9 µM (inactive) in the assay on UACC-257.
On to `O=C1CCCC1C(O)(C(F)(F)F)C(F)(F)F` (stereo not given), for which the GI50 in the assay with OVCAR-3, with MDA-MB-231, with CAKI-1, with HCT-116, in the assay with RXF 393 and with MDA-MB-435 was > 100 µM (inactive) each time. Moreover, the GI50 with HOP-62, with OVCAR-4, in the assay with DU-145, in the assay on OVCAR-5, in the assay with NCI-H23 and in the assay on SW-620 was > 100 µM (inactive) each time. The GI50 in the assay on HT-29 is > 100 µM (inactive); in the assay with NCI/ADR-RES, > 100 µM (inactive); in the assay on LOX IMVI, > 100 µM (inactive); in the assay with EKVX, > 100 µM (inactive); with SNB-75 it was > 100 µM (inactive); in the assay with HCT-15, above 100 µM. Also, the GI50 with UO-31 and in the assay on UACC-257 was > 100 µM (inactive) in each case.
In the case of `O=[N+]([O-])c1cc(/N=N/c2c(O)ccc3cc(S(=O)(=O)O)ccc23)c(O)c([N+](=O)[O-])c1`, the GI50 in the assay on OVCAR-3 was 63.1 µM (inactive); in the assay on MDA-MB-231 it was > 100 µM (inactive); in the assay with CAKI-1, > 100 µM (inactive); in the assay on HCT-116 it was > 100 µM (inactive); with RXF 393 it was > 100 µM (inactive); in the assay on MDA-MB-435, > 100 µM (inactive). Also, the GI50 in the assay with HOP-62 was > 100 µM (inactive); with OVCAR-4, > 100 µM (inactive); with DU-145, > 100 µM (inactive); in the assay on OVCAR-5, > 100 µM (inactive); in the assay on NCI-H23, > 100 µM (inactive); with SW-620 it was 93.1 µM (inactive). In addition, the GI50 with HT-29 was 50.2 µM (inactive); with NCI/ADR-RES, > 100 µM (inactive); in the assay on LOX IMVI, 49 µM (inactive); with EKVX, > 100 µM (inactive); in the assay with SNB-75 it was > 100 µM (inactive); in the assay on HCT-15, 51.8 µM. In addition, the GI50 was 39.4 µM (inactive) in the assay with UO-31 and > 100 µM (inactive) in the assay on UACC-257.
`COc1ccccc1-c1cc(=O)c2ccc(OC)c(OC)c2o1`: the GI50 in the assay with OVCAR-3 was 31.6 µM (inactive); in the assay with MDA-MB-231, > 100 µM (inactive); with CAKI-1, > 100 µM (inactive); in the assay on HCT-116, 45.9 µM (inactive); in the assay with RXF 393, 27.1 µM (inactive); in the assay with MDA-MB-435, 46 µM (inactive). Also, the GI50 in the assay with HOP-62 is > 100 µM (inactive); in the assay with OVCAR-4, 38.4 µM (inactive); in the assay with DU-145, 55.5 µM (inactive); in the assay with OVCAR-5, > 100 µM (inactive); in the assay on NCI-H23 it was > 100 µM (inactive); in the assay on SW-620, 96.2 µM (inactive). The GI50 in the assay with HT-29 is 34.3 µM (inactive); with NCI/ADR-RES it was 26.4 µM (inactive); with LOX IMVI, 33.1 µM (inactive); with EKVX, 58.7 µM (inactive); in the assay with SNB-75, 70.5 µM (inactive); in the assay on HCT-15, 41.4 µM. For the same compound, the results for the GI50 in the assay with UO-31 and with UACC-257 were 30.2 µM (inactive) and 44.9 µM (inactive), respectively.
